One assay has as its target Btk enzyme (His-Btk) (Homo sapiens (Human), UniProt Q06187). Description: Btk enzyme activity (IMAP fluorescence polarization assay). For orientation: Fluorescence polarisation rises when a labelled molecule tumbles more slowly, as on binding a larger partner.
The next assay addresses FynT enzyme (Homo sapiens (Human), UniProt P06241). The experiment in a line: FynT enzyme activity (IMAP fluorescence polarization assay). It counts as biochemical. The conditions noted are these: 60 min pre-incubation, 0.2 μM ATP. The protocol: FynT enzyme activity is measured using the IMAP (immobilized metal ion affinity-based fluorescence polarization) assay as outlined below.
Test compounds and FynT enzyme are pre-incubated 60 minutes at room temperature, before adding 5 μL/well of 400 nM Fluorescin labeled substrate peptide (p34cdc2 substrate peptide, e.g. #R7157/#R7172, Molecular Devices) in KR-buffer. Final peptide substrate concentration in assay is 100 nM. […] Following incubation for 2 h at room temperature the enzyme reaction is stopped by adding 40 μL/well IMAP Progressive Binding Solution (according to suppliers (Molecular Devices) protocol using 75% 1× buffer A and 25% 1× buffer B with 1:600 Progressive Binding Solution). After 60 min incubation at room temperature in the dark the FP signal is read. […] Values are calculated as percentage of the difference in readout (ΔmPi) of the controls with and without ATP. EC50 values are determined by curve fitting of the experimental results using Activity Base.

The target of another assay is Src enzyme (Homo sapiens (Human), UniProt P12931). The experiment in a line: Src enzyme activity (IMAP fluorescence polarization assay).
The target in a further assay is Lyn enzyme (Homo sapiens (Human), UniProt P07948). Description: Lyn enzyme activity (IMAP fluorescence polarization assay).
Another assay has as its target Lck enzyme (Homo sapiens (Human), UniProt P06239). Description: Lck enzyme activity (IMAP fluorescence polarization assay).
[1] abbreviates: read-out: EC50 Btk activity values, IMAP, 60 min pre-incubation, 5 μM ATP, bin bound in nM.
Where [2] appears, read: read-out: EC50 Src activity values, IMAP, 60 min pre-incubation, 4 μM ATP.
The mark [3] stands for this setting: read-out: EC50 Lyn activity values, 60 min pre-incubation, 2 μM ATP, bin bound in μM.
[4] abbreviates: read-out: EC50 Lck activity values, IMAP, 60 min pre-incubation, 6 μM ATP, bin bound in μM.
Setting [5] is: IMAP, 60 min pre-incubation, 5 μM ATP, bin bound in nM.
The mark [6] stands for this setting: EC50 Lyn activity values, 60 min pre-incubation, 2 μM ATP, bin bound in μM.

Read-outs that look alike come from different tables or passages of the source. Some results are limits rather than exact numbers.

Sequence of Lck enzyme (P06239 whole entry): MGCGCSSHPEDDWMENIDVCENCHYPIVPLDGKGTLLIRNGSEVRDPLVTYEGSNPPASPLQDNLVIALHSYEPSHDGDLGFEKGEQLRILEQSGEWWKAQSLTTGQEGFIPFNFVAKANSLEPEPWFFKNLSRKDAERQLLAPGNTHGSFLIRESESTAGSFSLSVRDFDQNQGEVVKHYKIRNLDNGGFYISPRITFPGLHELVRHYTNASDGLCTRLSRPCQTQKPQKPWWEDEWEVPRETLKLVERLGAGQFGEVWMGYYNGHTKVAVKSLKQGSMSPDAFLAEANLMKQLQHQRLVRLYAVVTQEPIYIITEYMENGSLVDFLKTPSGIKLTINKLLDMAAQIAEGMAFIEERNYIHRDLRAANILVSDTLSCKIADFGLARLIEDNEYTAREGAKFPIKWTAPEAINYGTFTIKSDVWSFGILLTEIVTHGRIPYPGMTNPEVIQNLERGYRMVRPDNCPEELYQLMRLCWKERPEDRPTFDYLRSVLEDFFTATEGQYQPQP
Sequence of Lyn enzyme (P07948 whole entry): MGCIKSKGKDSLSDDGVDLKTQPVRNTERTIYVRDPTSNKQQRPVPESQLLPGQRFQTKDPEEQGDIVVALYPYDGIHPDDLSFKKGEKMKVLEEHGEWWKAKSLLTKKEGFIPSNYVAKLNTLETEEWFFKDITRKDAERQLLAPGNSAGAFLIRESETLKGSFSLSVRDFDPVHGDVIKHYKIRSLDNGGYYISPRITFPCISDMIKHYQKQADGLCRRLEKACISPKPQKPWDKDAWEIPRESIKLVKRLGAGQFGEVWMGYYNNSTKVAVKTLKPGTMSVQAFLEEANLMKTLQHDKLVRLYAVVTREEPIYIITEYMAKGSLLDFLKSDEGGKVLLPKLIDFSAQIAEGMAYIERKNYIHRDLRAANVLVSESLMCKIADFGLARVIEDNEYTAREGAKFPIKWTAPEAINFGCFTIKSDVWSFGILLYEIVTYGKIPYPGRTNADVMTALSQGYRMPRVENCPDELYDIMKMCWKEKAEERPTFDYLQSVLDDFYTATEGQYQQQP
Sequence of Src enzyme (P12931 whole entry, looked up): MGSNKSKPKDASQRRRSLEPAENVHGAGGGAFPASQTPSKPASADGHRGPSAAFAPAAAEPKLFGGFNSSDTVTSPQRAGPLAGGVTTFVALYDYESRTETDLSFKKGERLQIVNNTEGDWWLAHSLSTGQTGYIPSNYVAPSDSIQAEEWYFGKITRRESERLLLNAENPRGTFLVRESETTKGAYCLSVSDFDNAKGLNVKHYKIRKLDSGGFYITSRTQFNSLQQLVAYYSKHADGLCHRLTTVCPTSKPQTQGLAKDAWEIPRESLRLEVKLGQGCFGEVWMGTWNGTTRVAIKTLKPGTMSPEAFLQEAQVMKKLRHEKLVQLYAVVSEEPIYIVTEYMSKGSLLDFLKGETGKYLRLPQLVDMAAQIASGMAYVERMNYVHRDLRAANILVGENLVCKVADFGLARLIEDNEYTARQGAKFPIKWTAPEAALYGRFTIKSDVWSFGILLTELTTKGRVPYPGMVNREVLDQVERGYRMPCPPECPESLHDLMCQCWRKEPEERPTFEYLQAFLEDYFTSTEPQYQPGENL
Sequence of FynT enzyme (P06241 other isoform, or with tags, fused parts or gaps): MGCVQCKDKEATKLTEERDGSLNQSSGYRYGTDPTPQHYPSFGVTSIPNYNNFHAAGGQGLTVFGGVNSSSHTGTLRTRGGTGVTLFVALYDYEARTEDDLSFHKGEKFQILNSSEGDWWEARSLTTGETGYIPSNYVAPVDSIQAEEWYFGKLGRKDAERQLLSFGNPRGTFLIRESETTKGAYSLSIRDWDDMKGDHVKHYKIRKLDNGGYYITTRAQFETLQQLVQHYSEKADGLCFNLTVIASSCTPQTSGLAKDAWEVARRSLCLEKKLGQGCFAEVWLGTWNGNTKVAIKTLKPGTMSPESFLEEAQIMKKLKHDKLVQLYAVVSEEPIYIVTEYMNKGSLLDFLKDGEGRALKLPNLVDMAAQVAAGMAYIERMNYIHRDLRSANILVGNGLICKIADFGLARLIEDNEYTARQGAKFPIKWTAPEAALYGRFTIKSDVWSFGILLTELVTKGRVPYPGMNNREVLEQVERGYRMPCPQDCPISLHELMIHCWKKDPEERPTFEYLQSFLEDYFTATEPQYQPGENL
Sequence of Btk enzyme (His-Btk) (Q06187 whole entry): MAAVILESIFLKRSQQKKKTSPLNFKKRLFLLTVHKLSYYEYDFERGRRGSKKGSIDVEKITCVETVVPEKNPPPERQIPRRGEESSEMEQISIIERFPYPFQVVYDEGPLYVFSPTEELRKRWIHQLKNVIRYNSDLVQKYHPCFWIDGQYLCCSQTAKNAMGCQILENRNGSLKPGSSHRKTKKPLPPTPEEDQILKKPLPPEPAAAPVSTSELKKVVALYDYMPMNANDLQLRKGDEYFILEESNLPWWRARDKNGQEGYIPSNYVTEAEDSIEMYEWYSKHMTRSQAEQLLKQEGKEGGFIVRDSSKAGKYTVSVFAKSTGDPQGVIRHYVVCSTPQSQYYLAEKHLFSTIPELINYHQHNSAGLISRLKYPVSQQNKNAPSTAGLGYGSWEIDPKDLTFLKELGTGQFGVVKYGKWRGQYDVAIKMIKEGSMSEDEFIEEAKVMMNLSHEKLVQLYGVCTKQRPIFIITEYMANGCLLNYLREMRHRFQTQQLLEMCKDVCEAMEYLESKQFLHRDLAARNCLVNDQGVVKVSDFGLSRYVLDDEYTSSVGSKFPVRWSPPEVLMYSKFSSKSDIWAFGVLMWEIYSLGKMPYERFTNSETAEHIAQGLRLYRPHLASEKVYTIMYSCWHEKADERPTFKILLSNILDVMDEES

On to `C=CC(=O)N1CCC[C@H]1c1nc(-c2ccc(C(=O)Nc3ccccn3)cc2)c2c(N)nccn12` [Example 1, (S)-4-(3-(1-Acryloylpyrrolidin-2-yl)-8-aminoimidazo[1,5-a]pyrazin-1-yl)-N-(pyridin-2-yl)benzamide], for which the EC50 at Btk enzyme (His-Btk) (setting [1]) is less than 10 nM; on FynT enzyme, no less than 1000 nM; on Src enzyme (setting [2]), no less than 1000 nM; on Lyn enzyme (setting [3]) it was no less than 1 µM; at Lck enzyme (setting [4]), no less than 1 µM.

For the molecule `Nc1nccn2c([C@@H]3CCCN3C(=O)/C=C/CN3CCCC3)nc(-c3ccc(C(=O)Nc4ccccn4)cc3)c12` [Example 2, (S,E)-4-(8-amino-3-(1-(4-(pyrrolidin-1-yl)but-2-enoyl)pyrrolidin-2-yl)imidazo[1,5-a]pyrazin-1-yl)-N-(pyridin-2-yl)benzamide], the EC50 on Btk enzyme (His-Btk) was 10 to 100 nM; at FynT enzyme, no less than 1000 nM; at Src enzyme, no less than 1000 nM; on Lyn enzyme (setting [6]), no less than 1 µM; at Lck enzyme it was no less than 1 µM. Further, the “EC50 Btk activity values” at Btk enzyme (His-Btk) (setting [5]) is given as less than 100 nM.

For the molecule `CN(C)C/C=C/C(=O)N1CCC[C@H]1c1nc(-c2ccc(C(=O)Nc3ccccn3)cc2)c2c(N)nccn12` [Example 3, (S,E)-4-(8-Amino-3-(1-(4-(dimethylamino)but-2-enoyl)pyrrolidin-2-yl)imidazo[1,5-a]pyrazin-1-yl)-N-(pyridin-2-yl)benzamide], the EC50 on Btk enzyme (His-Btk) (setting [1]) is less than 10 nM.

Turning to `COC/C=C/C(=O)N1CCC[C@H]1c1nc(-c2ccc(C(=O)Nc3ccccn3)cc2)c2c(N)nccn12` [Example 4, (S,E)-4-(8-amino-3-(1-(4-methoxybut-2-enoyl)pyrrolidin-2-yl)imidazo[1,5-a]pyrazin-1-yl)-N-(pyridin-2-yl)benzamide], the EC50 at Btk enzyme (His-Btk) is 10 to 100 nM; on FynT enzyme, no less than 1000 nM; on Src enzyme (setting [2]) it was no less than 1000 nM; at Lyn enzyme (setting [3]), no less than 1 µM; at Lck enzyme (setting [4]) it was no less than 1 µM. In addition, on Btk enzyme (His-Btk) (setting [5]), the “EC50 Btk activity values” is less than 100 nM.

As to `Nc1nccn2c([C@@H]3CCCN3C(=O)c3ccnc(Cl)n3)nc(-c3ccc(C(=O)Nc4ccccn4)cc3)c12` [Example 5, (S)-4-(8-amino-3-(1-(2-chloropyrimidine-4-carbonyl)pyrrolidin-2-yl)imidazo[1,5-a]pyrazin-1-yl)-N-(pyridin-2-yl)benzamide], the EC50 was 10 to 100 nM at Btk enzyme (His-Btk); no less than 1000 nM on FynT enzyme; no less than 1000 nM at Src enzyme (setting [2]); no less than 1 µM at Lyn enzyme (setting [3]); no less than 1 µM at Lck enzyme (setting [4]). Besides, at Btk enzyme (His-Btk) (setting [5]), the “EC50 Btk activity values” is reported as less than 100 nM.

Turning to `CC#CC(=O)N1CCC[C@H]1c1nc(-c2ccc(C(=O)Nc3ccccn3)cc2)c2c(N)nccn12` [Example 6, (S)-4-(8-amino-3-(1-but-2-ynoylpyrrolidin-2-yl)imidazo[1,5-a]pyrazin-1-yl)-N-(pyridin-2-yl)benzamide], the EC50 was no less than 1000 nM on FynT enzyme, no less than 1000 nM on Src enzyme, no less than 1 µM on Lyn enzyme (setting [6]) and no less than 1 µM on Lck enzyme.

On to `CN(C)C/C=C/C(=O)N1CCC[C@H]1c1nc(-c2ccc(C(=O)Nc3cc(F)ccn3)cc2)c2c(N)nccn12` [Example 7, (S,E)-4-(8-Amino-3-(1-(4-(dimethylamino)but-2-enoyl)pyrrolidin-2-yl)imidazo[1,5-a]pyrazin-1-yl)-N-(4-fluoropyridin-2-yl)benzamide], for which the EC50 on Btk enzyme (His-Btk) was 10 to 100 nM; on FynT enzyme it was no less than 1000 nM; on Src enzyme (setting [2]) it was no less than 1000 nM; on Lyn enzyme (setting [3]), no less than 1 µM; on Lck enzyme (setting [4]), no less than 1 µM. Moreover, on Btk enzyme (His-Btk) (setting [5]), the “EC50 Btk activity values” is reported as less than 100 nM.

As for `CC#CC(=O)N1CCC[C@H]1c1nc(-c2ccc(C(=O)Nc3cc(C)ccn3)cc2)c2c(N)nccn12` [Example 8, (S)-4-(8-Amino-3-(1-but-2-ynoylpyrrolidin-2-yl)imidazo[1,5-a]pyrazin-1-yl)-N-(4-methylpyridin-2-yl)benzamide], the EC50 at Btk enzyme (His-Btk) (setting [1]) is less than 10 nM; at FynT enzyme, no less than 1000 nM; on Src enzyme (setting [2]), no less than 1000 nM; at Lyn enzyme (setting [3]) it was no less than 1 µM; at Lck enzyme (setting [4]), no less than 1 µM.

For the molecule `CC#CC(=O)N1CCC[C@H]1c1nc(-c2ccc(C(=O)Nc3cc(C(F)(F)F)ccn3)cc2)c2c(N)nccn12` [Example 10, (S)-4-(8-Amino-3-(1-but-2-ynoylpyrrolidin-2-yl)imidazo[1,5-a]pyrazin-1-yl)-N-(4-(trifluoromethyl)pyridin-2-yl)benzamide], the EC50 on Btk enzyme (His-Btk) (setting [1]) is less than 10 nM; on FynT enzyme it was no less than 1000 nM; at Src enzyme (setting [2]) it was no less than 1000 nM; on Lyn enzyme (setting [3]), no less than 1 µM; on Lck enzyme (setting [4]) it was no less than 1 µM.

On to `CCc1ccnc(NC(=O)c2ccc(-c3nc([C@@H]4CCCN4C(=O)/C=C/COC)n4ccnc(N)c34)cc2)c1` [Example 11, (S,E)-4-(8-Amino-3-(1-(4-methoxybut-2-enoyl)pyrrolidin-2-yl)imidazo[1,5-a]pyrazin-1-yl)-N-(4-ethylpyridin-2-yl)benzamide], for which the EC50 on Btk enzyme (His-Btk) is 10 to 100 nM; on FynT enzyme, no less than 1000 nM; on Src enzyme (setting [2]), no less than 1000 nM; at Lyn enzyme (setting [3]), no less than 1 µM; at Lck enzyme (setting [4]) it was no less than 1 µM. In addition, the “EC50 Btk activity values” at Btk enzyme (His-Btk) (setting [5]) is given as less than 100 nM.

Take `CC#CC(=O)N1CCC[C@H]1c1nc(-c2ccc(C(=O)Nc3nc4c(s3)CCCC4)cc2)c2c(N)nccn12` [Example 12, (S)-4-(8-Amino-3-(1-but-2-ynoylpyrrolidin-2-yl)imidazo[1,5-a]pyrazin-1-yl)-N-(4,5,6,7-tetrahydrobenzo[d]thiazol-2-yl)benzamide]: the EC50 on Btk enzyme (His-Btk) (setting [1]) is less than 10 nM; at FynT enzyme, no less than 1000 nM; at Src enzyme (setting [2]) it was no less than 1000 nM; on Lyn enzyme (setting [3]), no less than 1 µM; at Lck enzyme (setting [4]), no less than 1 µM.

Take `C=CC(=O)N1CCC[C@H]1c1nc(-c2ccc(C(=O)Nc3ccccn3)c(F)c2)c2c(N)nccn12` [Example 13, (S)-4-(3-(1-acryloylpyrrolidin-2-yl)-8-aminoimidazo[1,5-a]pyrazin-1-yl)-2-fluoro-N-(pyridin-2-yl)benzamide]: the EC50 is less than 10 nM at Btk enzyme (His-Btk) (setting [1]); no less than 1000 nM at FynT enzyme; no less than 1000 nM on Src enzyme (setting [2]); no less than 1 µM on Lyn enzyme (setting [3]); no less than 1 µM on Lck enzyme (setting [4]).

Turning to `C=CC(=O)N1CCC[C@H]1c1nc(-c2ccc(C(=O)Nc3ccccn3)c(OC)c2)c2c(N)nccn12` [Example 14, (S)-4-(3-(1-Acryloylpyrrolidin-2-yl)-8-aminoimidazo[1,5-a]pyrazin-1-yl)-2-methoxy-N-(pyridin-2-yl)benzamide], the EC50 was less than 10 nM on Btk enzyme (His-Btk) (setting [1]); no less than 1000 nM at FynT enzyme; no less than 1000 nM on Src enzyme (setting [2]); no less than 1 µM on Lyn enzyme (setting [3]); no less than 1 µM at Lck enzyme (setting [4]).

For the molecule `CN(C)C/C=C/C(=O)N1CCC[C@H]1c1nc(-c2ccc(C(=O)Nc3nccs3)cc2)c2c(N)nccn12` [Example 15, (S,E)-4-(8-Amino-3-(1-(4-(dimethylamino)but-2-enoyl)pyrrolidin-2-yl)imidazo[1,5-a]pyrazin-1-yl)-N-(thiazol-2-yl)benzamide], the EC50 was less than 10 nM at Btk enzyme (His-Btk) (setting [1]); no less than 1000 nM at FynT enzyme; no less than 1000 nM at Src enzyme (setting [2]); no less than 1 µM on Lyn enzyme (setting [3]); no less than 1 µM on Lck enzyme (setting [4]).

Consider `COC/C=C/C(=O)N1CCCC[C@H]1c1nc(-c2ccc(C(=O)Nc3ccccn3)cc2)c2c(N)nccn12` [Example 16, (S,E)-4-(8-Amino-3-(1-(4-methoxybut-2-enoyl)piperidin-2-yl)imidazo[1,5-a]pyrazin-1-yl)-N-(pyridin-2-yl)benzamide], for which the EC50 is less than 10 nM on Btk enzyme (His-Btk) (setting [1]); no less than 1000 nM on FynT enzyme; no less than 1000 nM at Src enzyme (setting [2]); no less than 1 µM at Lyn enzyme (setting [3]); no less than 1 µM on Lck enzyme (setting [4]).

Regarding `C=CC(=O)N1CCCC[C@H]1c1nc(-c2ccc(C(=O)Nc3cc(F)ccn3)cc2)c2c(N)nccn12` [Example 17, (S)-4-(3-(1-Acryloylpiperidin-2-yl)-8-aminoimidazo[1,5-a]pyrazin-1-yl)-N-(4-fluoropyridin-2-yl)benzamide], the EC50 at Btk enzyme (His-Btk) (setting [1]) was less than 10 nM; at FynT enzyme, no less than 1000 nM; at Src enzyme (setting [2]), no less than 1000 nM; on Lyn enzyme (setting [3]), no less than 1 µM; at Lck enzyme (setting [4]), no less than 1 µM.

In the case of `C/C=C/C(=O)N1CCC[C@H]1c1nc(-c2ccc(C(=O)Nc3ccccn3)cc2)c2c(N)nccn12` [Example 93, (S,E)-4-(8-amino-3-(1-but-2-enoylpyrrolidin-2-yl)imidazo[1,5-a]pyrazin-1-yl)-N-(pyridin-2-yl)benzamide], the EC50 on FynT enzyme is no less than 1000 nM; at Src enzyme (setting [2]), no less than 1000 nM; at Lyn enzyme (setting [3]), no less than 1 µM; at Lck enzyme, no less than 1 µM.

As for `CN(C)C/C=C/C(=O)N1CCC[C@H]1c1nc(-c2ccc(C(=O)Nc3ccccn3)cc2)c2c(N)nccn12` [Example 127, (S,E)-4-(8-amino-3-(1-(4-(dimethylamino)but-2-enoyl)pyrrolidin-2-yl)imidazo[1,5-a]pyrazin-1-yl)-N-(pyridin-2-yl)benzamide], the EC50 was no less than 1000 nM at FynT enzyme, no less than 1000 nM on Src enzyme (setting [2]), no less than 1 µM at Lyn enzyme (setting [3]) and no less than 1 µM on Lck enzyme (setting [4]).

The EC50 is the concentration needed to bring the measured effect to its halfway point.
